The values below come from publication PMC6790288 (The journal of pain : official journal of the American Pain …, 2019).

SMILES strings stand for the structures. Like-named read-outs stand apart in the source and are kept apart here.

The Ki is the dissociation constant of the complex between target and ligand, obtained from inhibition or displacement.

Series [1] deals with healthy participants. Nature of the series: Drug-related adverse events.
The conditions of series [2]: 12 participants, 5 days rifampicin, 100 mg oral tramadol; cited from earlier work.
The conditions of series [3]: for (+)-M1 Cssmax 90% CI (bioequivalence ratio desmetramadol vs tramadol) / (+)-M1 Cssmin 90% CI (bioequivalence ratio desmetramadol vs tramadol) / (−)-M1 Cssmax 90% CI (bioequivalence ratio desmetramadol vs tramadol) / (−)-M1 Cssmin 90% CI (bioequivalence ratio desmetramadol vs tramadol): bioequivalent if within .80 to 1.25.
Another series deals with pupil diameter. In words: Pupillometry. The format is in vivo, human. To be noted: trial A; for Pupil diameter, predose: before first dose of segment.
For series [4], the system named is healthy participants. Nature of the series: Abuse liability visual analog scales. Type of series: in vivo, human. To be noted: trial A, n = 43, 0–100 mm VAS after seventh dose, M (SD).
The conditions of series [5]: cited from earlier work.
A further series relates to cold-induced pain. Nature of the series: Cold pressor test. Type of series: in vivo, human.
Series [6] has as its system healthy participants. Nature of the series: Respiratory rate. To be noted: trial B (with paroxetine), n = 60; MPD (SD).
For series [7] the following is noted: in vivo, po; cited from earlier work.
In another series the target is μ-opioid receptor. To be noted: read-out: μ-opioid receptor affinity (Ki); in vitro, racemic M5; cited from earlier work.
Series [8] addresses norepinephrine transporter. To be noted: read-out: norepinephrine transporter Ki; in vitro functional potency; cited from earlier work.
For series [9], the system named is serotonin reuptake transporter. To be noted: cited from earlier work.
The mark [10] stands for this setting: trial A, listed as desmetramadol.

In the case of `CN(C)C[C@H]1CCCC[C@]1(O)c1cccc(O)c1` [Desmetramadol, O-desmethyltramadol], in the series on healthy participants [1] (trial A), the Deaths was 0(0) n (%), the “Severe AEs” value is reported as 0 (0) n (%) and the “participants reporting drug-related AEs” value turned out to be 44%. In the series with healthy participants [1] (trial A, all), the Dizziness is 6(14) n (%), the Euphoria is listed as 0 (0) n (%), the Feel abnormal is listed as 0 (0) n (%) and the Feel hot is on record as 0 (0) n (%). Moreover, in the series with healthy participants [1] (trial A, all), the Headache is on record as 3 (7) n (%), the Nausea is on record as 8(19) n (%), the Presyncope is given as 0 (0) n (%) and the Pruritus was 3 (7) n (%). Moreover, in the series on healthy participants [1] (trial A, all), the Somnolence is 3 (7) n (%), the Spasticity is 0 (0) n (%), the Sweating was 0 (0) n (%) and the Vomiting is reported as 1 (2) n (%). In the series on healthy participants [1] (trial A, male), the Dizziness is 6(14) n (%), the Euphoria is 0 (0) n (%), the Feel abnormal was 0 (0) n (%) and the Feel hot is listed as 0 (0) n (%). In the series with healthy participants [1] (trial A, male), the Headache was 3 (7) n (%), the Nausea is 8(19) n (%), the Presyncope is given as 0 (0) n (%) and the Pruritus is listed as 3 (7) n (%). Moreover, in the series on healthy participants [1] (trial A, male), the Somnolence is 3 (7) n (%), the Spasticity is 0 (0) n (%), the Sweating is 0 (0) n (%) and the Vomiting is 1 (2) n (%). For the same compound, the “All drug-related AEs” value in the series with healthy participants [1] (trial A, n = 43 (all male)) is recorded as 19 (44) n (%). In the series on healthy participants [1] (trial B), the Deaths is on record as 0 (0) n (%) and the “Severe AEs” value was 0 (0) n (%). The “participants reporting drug-related AEs” value in the series on healthy participants [1] (trial B (with paroxetine)) is listed as 67%. The “All drug-related AEs” value in the series with healthy participants [1] (trial B (with paroxetine), n = 60) is given as 40 (67) n (%). In the series on healthy participants [1] (trial B, all), the Dizziness is 12 (20) n (%), the Euphoria was 2 (3) n (%), the Feel abnormal was 3 (5) n (%) and the Feel hot was 3 (5) n (%). Also, in the series on healthy participants [1] (trial B, all), the Headache is recorded as 10(17) n (%), the Nausea is 16(27) n (%), the Presyncope is reported as 6(10) n (%) and the Pruritus is reported as 4 (7) n (%). In the series with healthy participants [1] (trial B, all), the Somnolence was 10(17) n (%), the Spasticity is 3 (5) n (%), the Sweating is 2 (3) n (%) and the Vomiting was 9(15) n (%). In the series with healthy participants [1] (trial B, female), the Dizziness is given as 5 (28) n (%), the Euphoria is recorded as 1 (6) n (%), the Feel abnormal is given as 1 (6) n (%) and the Feel hot is 1 (6) n (%). For the same compound, in the series on healthy participants [1] (trial B, female), the Headache is on record as 6(33) n (%), the Nausea is given as 5 (28) n (%), the Presyncope is given as 3(17) n (%) and the Pruritus was 3(17) n (%). Besides, in the series with healthy participants [1] (trial B, female), the Somnolence is recorded as 6(33) n (%), the Spasticity is recorded as 0 (0) n (%), the Sweating was 0 (0) n (%) and the Vomiting is 3(17) n (%). Besides, in the series with healthy participants [1] (trial B, male), the Dizziness is given as 7(17) n (%), the Euphoria is on record as 1 (2) n (%), the Feel abnormal is given as 2 (5) n (%) and the Feel hot is listed as 2 (5) n (%). Moreover, in the series on healthy participants [1] (trial B, male), the Headache was 4(10) n (%), the Nausea is reported as 11 (26) n (%), the Presyncope is given as 3 (7) n (%) and the Pruritus is 1 (2) n (%). In addition, in the series on healthy participants [1] (trial B, male), the Somnolence is listed as 4(10) n (%), the Spasticity is reported as 3 (7) n (%), the Sweating is on record as 2 (5) n (%) and the Vomiting is 6(14) n (%). Further, in [2], the “decrease of AUC by rifampicin induction” value is on record as 54% and the “increase of M1 formation rate by rifampicin induction” value is given as 12%. In addition, in [3] (steady state plasma), the “change of (+)-M1 Cssmax, trial B (paroxetine) compared with trial A” value is 41% and the “change of (+)-M1 Cssmin, trial B (paroxetine) compared with trial A” value turned out to be 46%. In series [3] (trial A), the “(−)-M1 Cssmin and Cssmax lower for desmetramadol compared with tramadol” value amounted to 30%; the “(+)-M1 Cssmax 90% CI (bioequivalence ratio desmetramadol vs tramadol)” value is given as “.88–1.13”; the “(+)-M1 Cssmin 90% CI (bioequivalence ratio desmetramadol vs tramadol)” value is reported as “.85–1.08”; the “(−)-M1 Cssmax 90% CI (bioequivalence ratio desmetramadol vs tramadol)” value is listed as “.67-.76”. Besides, the “(−)-M1 Cssmin 90% CI (bioequivalence ratio desmetramadol vs tramadol)” value in [3] (trial A) is listed as “.69-.76”. Further, in [3] (trial A, CYP2D6 poor metabolizer), the “mean (+)-M1 in the poor metabolizer” value is recorded as 41 ng/mL. Also, the “mean (+)-M1 in the ultrarapid metabolizer” value in series [3] (trial A, CYP2D6 ultrarapid metabolizer) was determined as 22 ng/mL. Moreover, the “increase of mean desmetramadol (+)-M1 compared with tramadol (+)-M1” value in [3] (trial A, poor metabolizer) came out at 650%. Also, the “decrease of mean desmetramadol (+)-M1 compared with tramadol (+)-M1” value in series [3] (trial A, ultrarapid metabolizer) is reported as 40%. Besides, in series [3] (setting [10]), the “(+)-M1 Cssmax 90% CI (bioequivalence ratio desmetramadol vs tramadol)” value is given as “.88 −1.13”, the “(+)-M1 Cssmin 90% CI (bioequivalence ratio desmetramadol vs tramadol)” value is reported as “.85−1.08”, the “(−)-M1 Cssmax 90% CI (bioequivalence ratio desmetramadol vs tramadol)” value was “.67 −.76” and the “(−)-M1 Cssmin 90% CI (bioequivalence ratio desmetramadol vs tramadol)” value was “.69−.76”. For the same compound, in series [3] (trial B (with paroxetine)), the “desmetramadol (+)-M1 Cssmin and Cssmax exceed corresponding tramadol values” was determined as 3.5 fold; the “(+)-M1 Cssmax 90% CI (bioequivalence ratio desmetramadol vs tramadol)” value was 3.4–4.3; the “(+)-M1 Cssmin 90% CI (bioequivalence ratio desmetramadol vs tramadol)” value is recorded as 3.4–4.3; the “(−)-M1 Cssmax 90% CI (bioequivalence ratio desmetramadol vs tramadol)” value is “.93–1.07”. Also, the “(−)-M1 Cssmin 90% CI (bioequivalence ratio desmetramadol vs tramadol)” value in series [3] (trial B (with paroxetine)) was “.95–1.09”. Also, in series [3] (trial B vs trial A), the “increase of steady-state (−)-M1 by paroxetine” value is “approximately 15%”. Also, the “increase of plasma (+)-M1 by paroxetine” value in [3] (trial B vs trial A, steady state) is recorded as “approximately 40%”. The “pupil diameter, mean paired reduction compared with placebo” value in the series on pupil diameter (after dosing, mean (SD)) was −1.1 (.8) mm. Also, in the series on pupil diameter (n = 43, M (SD)), the “Pupil diameter, after seventh dose” value is given as 5.1 (1.2) mm and the “Pupil diameter, predose” value is recorded as 6.0 (1.1) mm. Besides, the “Pupil diameter, predose” value in the series with pupil diameter (n = 43, M (SD), listed as desmetramadol) was 6.0 [1.1] mm. Besides, in the series with healthy participants [4], the Drug liking-disliking was 47 (25) mm, the “Strength of drug effect” value is reported as 29 (28) mm and the Take drug again was 43 (26) mm. For the same compound, in the series on healthy participants [4] (listed as desmetramadol), the “Strength of drug effect” value is 29 [28] mm. Further, the “lethal M1 blood concentrations exceed therapeutic levels” value in series [5] is on record as ≤ 50 fold. Besides, the “average duration of tolerance to pain” value in the series with cold-induced pain (trial A) amounted to 63 s. The “tolerance to pain, mean paired increase relative to placebo” value in the series with cold-induced pain (trial A, mean [SE]) is 12.6 [3.8] seconds. Further, the “pain tolerated longer after desmetramadol than after tramadol” value with cold-induced pain (trial B (with paroxetine), male participants) came to 44%. For the same compound, the “tolerance to pain, mean paired increase relative to placebo” value with cold-induced pain (trial B (with paroxetine), male participants, mean [SE]) is 9.9 [1.9] seconds. For the same compound, the “change in paired cold-induced pain scores at 30 seconds compared with placebo” value in the series on cold-induced pain (trial B (with paroxetine), male population n = 42, mean [SE]) was “−.75 [.28] 0−10 VAS”. Further, the “Average postdose respiratory rate, mean paired difference versus placebo” value in the series with healthy participants [6] is “−.30 [.90] min^−1”.

On to `COc1ccc2c3c1O[C@H]1C(=O)CC[C@H]4[C@@H](C2)N(C)CC[C@]314` [Hydrocodone, hydrocodone], for which the lethal oral dose in series [7] is 90 mg.

Take `CNCC1CCCCC1(O)c1cccc(O)c1` (stereo not shown) [M5, O,N-didesmethyltramadol]: the Ki on μ-opioid receptor is 100 nM.

In the case of `COc1ccc2c3c1O[C@H]1C(=O)CC[C@@]4(O)[C@@H](C2)N(C)CC[C@]314` [Oxycodone, oxycodone], in series [7], the lethal oral dose is 40 mg.

As to `CC[C@@H](c1cccc(O)c1)[C@@H](C)CN(C)C` [Tapentadol], the Ki in series [8] is 480 nM. In [9], the “activity at the serotonin reuptake transporter” value is on record as “no activity”.
